Reference: patent publication US20120129842A1, “BISTHIAZOLE INHIBITORS OF PRO-MATRIX METALLOPROTEINASE ACTIVATION” (priority 2010, published 2012)
pIC50, pKd: −log10 of the molar value. Counter-ions that a name gives are not always drawn.

How the values were obtained:
[1] = molecular target: T1, full-length proMMP9(1-707) (SEQ ID NO:1) (Homo sapiens, UniProt P14780, R574P); assay: ProMMP9/MMP3 DQ Gelatin Activation Assay; type: biochemical; conditions: 20 nM proMMP9, 10 nM MMP3, DQ gelatin; read-out: ProMMP9/MMP3 DQ gel Activation Assay, IC50
T1 construct: made in house; host or cells: HEK293 (proMMP9, secreted); E. coli (MMP3)
T1 sequence (P14780 20-707 R574P): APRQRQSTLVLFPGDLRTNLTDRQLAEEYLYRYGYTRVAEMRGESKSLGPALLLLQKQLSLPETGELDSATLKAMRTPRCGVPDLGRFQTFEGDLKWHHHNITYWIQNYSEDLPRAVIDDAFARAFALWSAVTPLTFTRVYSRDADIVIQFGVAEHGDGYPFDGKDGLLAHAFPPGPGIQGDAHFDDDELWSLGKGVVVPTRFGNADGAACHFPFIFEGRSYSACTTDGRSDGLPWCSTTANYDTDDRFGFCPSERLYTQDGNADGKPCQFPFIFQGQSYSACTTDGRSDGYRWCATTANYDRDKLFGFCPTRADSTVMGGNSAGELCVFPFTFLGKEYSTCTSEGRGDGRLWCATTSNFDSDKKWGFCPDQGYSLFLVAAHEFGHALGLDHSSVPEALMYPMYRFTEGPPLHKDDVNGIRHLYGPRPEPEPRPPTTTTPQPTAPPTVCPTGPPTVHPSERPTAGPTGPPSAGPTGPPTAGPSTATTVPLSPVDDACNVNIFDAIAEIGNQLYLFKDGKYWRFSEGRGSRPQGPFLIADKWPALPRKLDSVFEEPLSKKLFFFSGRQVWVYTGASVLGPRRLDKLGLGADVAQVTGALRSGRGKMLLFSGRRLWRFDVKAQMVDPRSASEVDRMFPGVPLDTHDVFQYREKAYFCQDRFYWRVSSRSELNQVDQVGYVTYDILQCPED
Experimental: Compounds were assessed for inhibition of proMMP9 activation by catalytic MMP3 using a quenched fluorescein gelatin substrate (DQ gelatin, Invitrogen D12054) that fluoresces upon cleavage by activated MMP9. The assay buffer employed was 50 mM Hepes, pH 7.5, 10 mM CaCl2, 0.05% Brij-35. DMSO was included at a final concentration of 0.2%, arising from the test compound addition. […] Test compounds in DMSO were diluted 250-fold in assay buffer at 4× the final concentration. The reaction volume was 12 μL, and all reactions were conducted in triplicate. […] The plate was sealed and incubated for 30 min at 37° C. […] Immediately following the 30 min incubation, 4 μL of 40 μg/ml DQ gelatin substrate was added (freshly diluted in assay buffer), and incubated for 10 min at room temperature. The reaction was stopped by the addition of 4 μL of 50 mM EDTA, and the resulting activity associated with catalytic MMP9 was determined at 485 nm excitation, 535 nm emission using an Envision fluorescent reader (Perkin Elmer). Reactivity of residual MMP3 towards DQ gelatin was minimal under these conditions. Percent inhibition of test compounds were determined from suitable positive (DMSO only in assay buffer) and negative (EDTA added prior to reaction initiation) controls. Plots of % inhibition vs. test compound concentration were fit to a four-parameter logistics equation (GraphPad Prism® software) for determination of IC50.

[2] = molecular target: T2, proMMP9(20-445;ΔFnII) (SEQ ID NO:6) (Homo sapiens, UniProt P14780, DEL216-390); assay: ThermoFluor binding assay with proMMP9(20-445;ΔFnII); conditions: pH 7.0
T2 construct: start methionine (N); made in house; host or cells: E. coli BL21(DE3) RIL
T2 sequence (P14780 with tags, fused parts or gaps DEL216-390): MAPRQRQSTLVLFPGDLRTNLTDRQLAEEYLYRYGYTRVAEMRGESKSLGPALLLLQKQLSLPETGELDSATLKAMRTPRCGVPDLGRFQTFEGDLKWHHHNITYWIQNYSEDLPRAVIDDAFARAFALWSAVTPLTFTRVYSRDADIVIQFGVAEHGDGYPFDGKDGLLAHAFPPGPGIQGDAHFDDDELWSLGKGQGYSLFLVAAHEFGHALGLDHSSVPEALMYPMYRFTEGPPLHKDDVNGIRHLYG
Outline: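 proMMP9(20-445;ΔFnII) at 2.8 μM with 50 μM 1,8-ANS in 50 mM HEPES pH 7.0, 100 mM NaCl, 0.001% Tween-20, 2.5 mM MgCl2, 300 μM CaCl2; compounds serially diluted in DMSO. Heated 40–90 °C at 1 °C/min, fluorescence read at 500±25 nm. Tm fit by standard equations; binding fit using DSC/TF-derived thermodynamic parameters.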

[3] = molecular target: T3, proMMP9(67-444;ΔFnII) (SEQ ID NO:5) (Homo sapiens, UniProt P14780, DEL216-390); assay: ThermoFluor binding assay with proMMP9(67-444;ΔFnII); conditions: pH 7.0
T3 construct: start methionine (N); made in house; host or cells: E. coli BL21(DE3) RIL
T3 sequence (P14780 with tags, fused parts or gaps DEL216-390): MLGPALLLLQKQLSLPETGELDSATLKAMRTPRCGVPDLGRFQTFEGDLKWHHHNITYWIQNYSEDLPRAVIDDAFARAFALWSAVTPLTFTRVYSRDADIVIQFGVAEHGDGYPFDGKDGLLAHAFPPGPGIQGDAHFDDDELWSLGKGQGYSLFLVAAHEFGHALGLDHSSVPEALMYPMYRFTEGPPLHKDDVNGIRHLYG
Outline: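 Thermal shift binding with 3.5 μM proMMP9(67-444;ΔFnII) and 50 μM 1,8-ANS in 50 mM HEPES pH 7.0, 100 mM NaCl, 2.5 mM MgCl2, 300 μM CaCl2, 0.001% Tween-20, with serially diluted compound. Heated 40 to 90° C at 1° C/min; fluorescence-derived Tm fitted using DSC/ThermoFluor thermodynamic parameters.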

[4] = molecular target: T4, proMMP13(1-268) (SEQ ID NO:7) (Homo sapiens, UniProt P45452); assay: ThermoFluor binding assay with proMMP13(1-268); design: 6xHis (C); made in house; conditions: pH 7.0
Outline: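 Thermal shift binding with 3.5 μM protein and 25 μM 1,8-ANS in 50 mM HEPES pH 7.0, 100 mM NaCl, 0.001% Tween-20, 2.5 mM MgCl2, 300 μM CaCl2. Samples were heated 40 to 90 °C at 1 °C/min, fluorescence read at 500 nm. Tm shifts across an 11-point DMSO dilution series were fitted with DSC-derived thermodynamic parameters.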

[5] = molecular target: T1, full-length proMMP9(1-707) (SEQ ID NO:1); assay: proMMP9/MMP3 P126 Activation Assay; type: biochemical; conditions: 20 nM proMMP9, 20 nM MMP3, 80 min 37° C.
Experimental: The reaction volume was 50 μL. […] Reactivity of residual MMP3 towards P-126 substrate was minimal under these conditions.

[6] = molecular target: T4, proMMP13(1-268) (SEQ ID NO:7); assay: ProMMP13/Plasmin P126 Activation Assay; type: biochemical; design: 6xHis (C); made in house; host or cells: HEK293 (transient, secreted); conditions: 8 nM proMMP13, 16 nM plasmin, 40 min 37° C.
Experimental: On the day of assay, proMMP13(1-268) (SEQ ID NO:7) purified from HEK293 cells and plasmin were diluted to 160 nM and 320 nM, respectively, in assay buffer. The reaction volume was 50 μL. […] The plate was sealed and incubated for 40 min at 37° C. […] Plasmin was not reactive towards P-126 substrate under these conditions.

SMILES: COc1ncccc1Nc1nc(-c2sc(NC(C)=O)nc2C)cs1 [Example 147, N-[2-(2-Methoxy-pyridin-3-ylamino)-4′-methyl-[4,5′]bithiazolyl-2′-yl]-acetamide.TFA]
- pIC50 [1]: 4.70
- pKd [2]: 4.92
- pKd [3]: 5.12

SMILES: CC(=O)Nc1nc(C)c(-c2csc(Nc3cccc4ccccc34)n2)s1 [Example 149, N-[4′-Methyl-2-(naphthalen-1-ylamino)-[4,5′]bithiazolyl-2′-yl]-acetamide.HCl]
- pKd [4]: 4.40
- pIC50 [1]: 4.57
- pKd [2]: 5.30
- pKd [3]: 5.36

SMILES: CC(=O)Nc1nc(C)c(-c2csc(Nc3cccc4cccnc34)n2)s1 [Example 146, N-[4′-Methyl-2-(quinolin-8-ylamino)-[4,5′]bithiazolyl-2′-yl]-acetamide.TFA]
- pIC50 [1]: 5.23
- pKd [2]: 5.34
- pKd [3]: 5.89

SMILES: COc1ccc(C)cc1Nc1nc(-c2sc(NC(C)=O)nc2C)cs1 [Example 11, N-[2-(2-Methoxy-5-methyl-phenylamino)-4′-methyl-[4,5′]bithiazolyl-2′-yl]-acetamide]
- pKd [4]: 4.52
- pIC50 [1]: 5.05
- pKd [2]: 5.01
- pKd [3]: 5.96

SMILES: CC(=O)Nc1nc(C)c(-c2csc(Nc3cccnc3O)n2)s1 [Example 148, N-[2-(2-Hydroxy-pyridin-3-ylamino)-4′-methyl-[4,5′]bithiazolyl-2′-yl]-acetamide.HBr]
- pIC50 [1]: 5.22
- pKd [2]: < 5.10
- pKd [3]: < 5.10

SMILES: Cc1nc(CN2CCC(O)CC2)sc1-c1csc(Nc2cc(C(N)=O)ccc2OC(C)C)n1 [Example 127, 3-[2′-(4-Hydroxy-piperidin-1-ylmethyl)-4′-methyl-[4,5′]bithiazolyl-2-ylamino]-4-isopropoxy-benzamide.TFA]
- pIC50 [5]: 6.19
- pKd [4]: 5.07
- pKd [2]: 6.14
- pKd [3]: 5.46

SMILES: CCOc1ccc(C(N)=O)cc1Nc1nc(-c2sc(C(=O)NC3CCN(C)CC3)nc2C)cs1 [Example 121, 2-(5-Carbamoyl-2-ethoxy-phenylamino)-4′-methyl-[4,5′]bithiazolyl-2′-carboxylic acid (1-methyl-piperidin-4-yl)-amide.TFA]
- pIC50 [5]: 6.43
- pKd [4]: 5.06
- pKd [2]: 5.62
- pKd [3]: 5.92

SMILES: Cc1nc(C(=O)N(C)CCN(C)C)sc1-c1csc(Nc2cc(C(N)=O)ccc2OC(C)C)n1 [Example 107, 2-(5-Carbamoyl-2-isopropoxy-phenylamino)-4′-methyl-[4,5′]bithiazolyl-2′-carboxylic acid (2-dimethylamino-ethyl)-methyl-amide.TFA]
- pIC50 [5]: 6.82
- pKd [4]: 6.27
- pKd [2]: 6.70
- pKd [3]: 6.28

SMILES: CCOc1ccc(S(N)(=O)=O)cc1Nc1nc(-c2sc(C)nc2C)cs1 [Example 70, 3-(2′,4′-Dimethyl-[4,5′]bithiazolyl-2-ylamino)-4-ethoxy-benzenesulfonamide.HCl]
- pIC50 [5]: 6.34
- pKd [4]: 5.96
- pKd [2]: 6.60
- pKd [3]: 6.39

SMILES: COc1ccc(C(N)=O)cc1Nc1nc(-c2sc(N)nc2C(F)(F)F)cs1 [Example 87, 3-(2′-Amino-4′-trifluoromethyl-[4,5′]bithiazolyl-2-ylamino)-4-methoxy-benzamide.TFA]
- pIC50 [5]: 5.92
- pKd [4]: 5.52
- pKd [2]: 6.40
- pKd [3]: 6.42

SMILES: Cc1nc(CN2CCCCC2)sc1-c1csc(Nc2cc(C(N)=O)ccc2OC(C)C)n1 [Example 128, 4-Isopropoxy-3-(4′-methyl-2′-piperidin-1-ylmethyl-[4,5′]bithiazolyl-2-ylamino)-benzamide.TFA]
- pIC50 [5]: 5.89
- pKd [4]: 5.28
- pKd [2]: 6.30
- pKd [3]: 5.57

SMILES: COc1ccc(-c2cncn2C)cc1Nc1nc(-c2sc(C)nc2C)cs1 [Example 143, (2′,4′-Dimethyl-[4,5′]bithiazolyl-2-yl)-[2-methoxy-5-(3-methyl-3H-imidazol-4-yl)-phenyl]-amine]
- pIC50 [5]: ~5.22
- pKd [4]: 5.22
- pKd [2]: 4.21
- pKd [3]: 4.80

SMILES: Cc1nc(C)c(-c2nc(Nc3cc(C(N)=O)ccc3OC(C)C)sc2Br)s1 [Example 4, 3-(5-Bromo-2′,4′-dimethyl-[4,5′]bithiazolyl-2-ylamino)-4-isopropoxy-benzamide]
- pIC50 [5]: 5.05
- pKd [4]: 5.49
- pKd [2]: 5.92
- pKd [3]: 5.51

SMILES: Cc1nc(C2CCN(C)CC2)sc1-c1csc(Nc2cc(C(N)=O)ccc2OC(C)C)n1 [Example 157, 4-Isopropoxy-3-((4′-methyl-2′-(1-methylpiperidin-4-yl)-[4,5′-bithiazol]-2-yl)amino)benzamide.TFA]
- pIC50 [5]: 7.48
- pIC50 [6]: 6.07

SMILES: CCOc1ccc(C(N)=O)cc1Nc1nc(-c2sc(C(=O)N3CCN(CC)CC3)nc2C)cs1 [Example 117, 4-Ethoxy-3-[2′-(4-ethyl-piperazine-1-carbonyl)-4′-methyl-[4,5]bithiazolyl-2-ylamino]-benzamide.TFA]
- pIC50 [5]: 6.17
- pKd [4]: 5.16
- pKd [2]: 6.17
- pKd [3]: 5.70

SMILES: Cc1nc(C(=O)N(C)C)sc1-c1csc(Nc2cc(C(N)=O)ccc2OC(C)C)n1 [Example 106, 2-(5-Carbamoyl-2-isopropoxy-phenylamino)-4′-methyl-[4,5′]bithiazolyl-2′-carboxylic acid dimethylamide.TFA]
- pIC50 [5]: 6.04
- pKd [4]: 5.66
- pKd [2]: 5.92
- pKd [3]: 6.30

SMILES: Cc1nc(C)c(-c2csc(Nc3cc(C(N)=O)ccc3OC(F)(F)F)n2)s1 [Example 17, 3-(2′,4′-Dimethyl-[4,5′]bithiazolyl-2-ylamino)-4-trifluoromethoxy-benzamide]
- pIC50 [5]: 6.34
- pKd [4]: 4.92
- pKd [2]: 7.09
- pKd [3]: 6.14

SMILES: CCOc1ccc(C(N)=O)cc1Nc1nc(-c2sc(N)nc2C)cs1 [Example 7, 3-(2′-Amino-4′-methyl-[4,5′]bithiazolyl-2-ylamino)-4-ethoxy-benzamide]
- pIC50 [5]: 6.59
- pKd [4]: 5.85
- pKd [2]: 7.05
- pKd [3]: 6.47
